Values after ≈ are worked out from the molar mass of the structure shown.
Experiments:
[1] = system: E. faecalis (ATCC 29212); experiment: Minimum inhibitory concentration (MIC), 96-well microplate microdilution; type: cell-based; settings: 18 h at 37° C.; for MIC: Enterococcus faecalis, ATCC29212, 18 h
Experimental: (§1) The bacteriostatic properties of the derivatives are evaluated by measuring their minimum inhibitory concentration (MIC) on the bacteria tested. These measurements are made using the 96-well microplate microdilution method according to the conditions defined below.
(§2) The minimum inhibitory concentrations (MIC) are tested on Gram-positive bacterial strains according to the recommendations of the “Clinical Laboratory Standards Institute” (Clinical-Laboratory-Standards-Institute, 6th ed. Approved standard M100-S17. CLSI, Wayne, Pa., 2007).
(§3) The Gram-positive bacteria studied are as follows: L. monocytogenes (CIP 103575), E. faecalis (ATCC® 29212™) and S. aureus (ATCC® 292213™).
(§4) The cultures studied, freshly isolated (after incubation on a blood agar at 37° C. for 18 h), are taken up in sterile water (10 mL) until obtaining a 0.5 McFarland (Mc) suspension i.e. 1 to 2×10^8 CFU (bacteria)/cm^3. The bacterial suspension was then diluted to obtain a final concentration of 5×10^5 CFU/cm^3.
(§5) Each well contains an identical quantity of Mueller-Hinton medium (a rich medium for bacterial culture) and bacteria with final 5×10^5 CFU/cm^3.
(§6) The test compounds of interest are solubilized in 2.5% m of ethanol before being diluted to different concentrations two by two.
(§7) On the multiwell plate, a first series has been planned comprising the culture medium without the test compound of interest. It corresponds to the growth control (control well). These controls serve as reference for comparing bacterial growth with that of the subsequent wells comprising different concentrations of the test compound of interest. The second series of wells comprises the mother solution for the test compound of interest for a concentration in the wells of 4 mM. Each series of wells was diluted two by two until the last series for a final concentration of 0.003 mM. Each concentration is duplicated in the same plate. The plate is incubated for 18 h at 37° C. […] If there is antibacterial activity, the bacterial growth is inhibited, which means that no turbidity or bacterial residue is present.
(§8) Tests have been conducted on Gram-positive bacteria with methyl glucopyranoside derivatives. […] After sterilization the solutions are diluted in water. […] Because precipitates formed in the solutions, the effect of these methyl glucopyranoside C10 and C12 acetals was not able to be evaluated. The results obtained for antimicrobial tests on the 3 bacterial strains L. monocytogenes (CIP 103575), E. faecalis (ATCC® 29212) and S. aureus (ATCC® […]) are summarized in Table 1.
(§9) The sorbitan C5, C6, C8, C10 and C12 acetals and ethers were then tested under the same conditions as previously and on the same bacterial strains (see example 5).

[2] = system: L. monocytogenes (CIP 103575); experiment: as above; type: cell-based; settings: Listeria monocytogenes, CIP103575, 18 h at 37° C.
Experimental: as §1, §2, §3, §4, §5, §6, §7, §8, §9

[3] = system: S. aureus (ATCC 292213); experiment: as above; type: cell-based; settings: Staphylococcus aureus, ATCC292213, 18 h at 37° C.
Experimental: as §1, §2, §3, §4, §5, §6, §7, §8, §9

[4] = Water solubility of test solutions; type: physicochemical; settings: solutions diluted in water, 2.5% m ethanol; precipitates formed
Experimental: as §8

[5] = system: Gram-positive bacteria (L. monocytogenes, E. faecalis, S. aureus); experiment: MIC / antimicrobial activity stated for the Gram-positive strains studied together; type: cell-based; settings: concentrations less than or equal to 4 mM
Experimental: as §1, §2, §3, §4
Each well contains an identical quantity of Mueller-Hinton medium (a rich medium for bacterial culture) and bacteria with final 5×10^5 CFU/cm^3. […]
Tests have been conducted on Gram-positive bacteria with methyl glucopyranoside derivatives. […] Because precipitates formed in the solutions, the effect of these methyl glucopyranoside C10 and C12 acetals was not able to be evaluated. […]

[6] = system: L. monocytogenes; settings: cited from earlier work
[7] = system: S. aureus; settings: cited from earlier work

Row | SMILES | MIC [1] | MIC [2] | MIC [3] | melting point | other results
1 | CCCCCCCC1OCC2O[C@H](OC)C(O)C(O)[C@@H]2O1 (stereo partly drawn) [Compound 1c, Methyl 4,6-O-Octylidene α-D-glucopyranoside] | 2 mM (≈ 609 µg/mL) | 2 mM (≈ 609 µg/mL) | 4 mM (≈ 1220 µg/mL) |  | Minimum inhibitory concentration (MIC) E. faecalis ([1]; listed as AcC8 MeGlu): 4 mM (≈ 1220 µg/mL)
2 | CCCCCCCCCCCC1OCC2O[C@H](OC)C(O)C(O)[C@@H]2O1 (stereo partly drawn) [Compound 1g, Methyl 4,6-O-Dodecylidene α-D-mannopyranoside] |  |  |  | 104 °C | 
3 | CCCCCCCCCC1OCC2O[C@H](OC)C(O)C(O)[C@@H]2O1 (stereo partly drawn) [Compound 1d, Methyl 4,6-O-Decylidene α-D-glucopyranoside] |  |  |  | 72 °C | water solubility [4]: low water solubility
4 | CCCCCCCCCCCC1OCC2O[C@H](OC)C(O)C(O)[C@H]2O1 (stereo partly drawn) [Compound 1h, Methyl 4,6-O-Dodecylidene α-D-galactopyranoside] |  |  |  | 115 °C | 
5 | CCCCCCCCCCCC=O [dodecanal] |  |  |  |  | antimicrobial activity on the different bacterial strains [5]: no antimicrobial activity
6 | CCCCCCCCCCCC(=O)OCC(O)CO (centres unmarked) [ML, monolaurine] |  |  |  |  | Minimum inhibitory concentration (MIC) L. monocytogenes, compounds known in the prior art [6]: 0.04 mM (≈ 11 µg/mL); Minimum inhibitory concentration (MIC) S. aureus, compounds known in the prior art [7]: 0.04 mM (≈ 11 µg/mL)
7 | CCCCC1OCC2O[C@H](OC)C(O)C(O)[C@@H]2O1 (stereo partly drawn) [Compound 1a, Methyl 4,6-O-pentylidene α-D-glucopyranoside] | > 4 mM | > 4 mM | > 4 mM |  | 
8 | CCCCCC1OCC2O[C@H](OC)C(O)C(O)[C@@H]2O1 (stereo partly drawn) [Compound 1b, Methyl 4,6-O-Hexylidene α-D-glucopyranoside] | > 4 mM | > 4 mM | > 4 mM |  | 
